The results in this text go back to ChEMBL document CHEMBL5608197, “Optimization of pyrazolopyridine 4-carboxamides with potent antimalarial activity for which resistance is associated with the P. falciparum transporter ABCI3” (Eur J Med Chem, 2024).

Activity calls are given as the source filed them. The rule behind the calls is not given here.

The test system of data set [1] is Plasmodium falciparum. Nature of the data set: Antiplasmodial activity against drug-resistant Plasmodium falciparum Dd2-B2 in 2x10^7 bulk culture selection assessed as concentration required to complete parasite killing measured on day 2 under initial selection drug pressure concentration of 3XEC50 by Minimum inoculum of resistance analysis. In kind it is functional. Particulars: time 2 day.

For data set [2], the system named is Plasmodium falciparum. Nature of the data set: Antiplasmodial activity against multidrug-resistant Plasmodium falciparum Dd2 harboring DHODH-C276F mutant infected in erythrocytes assessed as inhibition of parasite growth incubated for 72 hrs by [3H]hypoxanthine incorporation based microbeta counting analysis. It counts as functional, organism-based. Particulars: Dd2, Erythrocyte.

Data set [3] concerns Plasmodium falciparum. Nature of the data set: Antiplasmodial activity against multidrug-resistant Plasmodium falciparum 7G8 infected in erythrocytes assessed as inhibition of parasite growth incubated for 72 hrs by [3H]hypoxanthine incorporation based microbeta counting analysis. It counts as functional, organism-based. Particulars: 7G8, Erythrocyte.
Data set [4] has as its system Plasmodium falciparum. Nature of the data set: Antimalarial activity against asexual stage of Plasmodium falciparum 3D7 infected in erythrocytes assessed as parasite killing at 10XEC50 incubated for 48 hrs with compound renewal for every 24 hrs followed by drug removal and incubation for 48 hrs with CFDA-SE labelled fresh erythrocytes by Hoechst 33342 staining based two-color flow cytometry. It counts as functional, organism-based. Particulars: Erythrocyte.

Data set [5] has as its system Plasmodium falciparum. The experiment in a line: Antiplasmodial activity against ring stage of Plasmodium falciparum 3D7 expressing ABCI3-HAreg assessed as inhibition of parasite proliferation incubated for 72 hrs in presence of ABCI3 inhibitor, GlcN by SYBR dye based flow cytometry. It counts as functional, organism-based. The settings on record: 3D7, 72 h.
Data set [6] concerns Plasmodium falciparum. The experiment in a line: Antiplasmodial activity against drug-resistant Plasmodium falciparum Dd2-B2 bulk cultures assessed as minimum inoculum of resistance measured under initial selection drug pressure concentration of 3XEC50 by MIR analysis. It counts as functional.
The subject of data set [7] is Plasmodium falciparum. The experiment in a line: Antiplasmodial activity against multidrug-resistant Plasmodium falciparum TM90-C2B infected in erythrocytes assessed as inhibition of parasite growth incubated for 72 hrs by [3H]hypoxanthine incorporation based microbeta counting analysis. It counts as functional, organism-based. Particulars: Erythrocyte.
In data set [8] the test system is Plasmodium falciparum. Nature of the data set: Resistance ratio of EC50 for antiplasmodial activity against drug-resistant recrudescent Plasmodium falciparum Dd2-B2 in 2x10^5 to 2x10^6 bulk culture selection measured on day 15 under initial selection drug pressure concentration of 3XEC50 to EC50 for antiplasmodial activity against Plasmodium flaciparum Dd2-B2 measured after 72 hrs. In kind it is functional.

Data set [9] relates to Plasmodium falciparum. Nature of the data set: Antiplasmodial activity against drug-resistant Plasmodium falciparum Dd2-B2 in 2x10^5 bulk culture selection assessed as concentration required to complete parasite killing measured on day 5 under initial selection drug pressure concentration of 3XEC50 by Minimum inoculum of resistance analysis. Particulars: time 5 day. In kind it is functional.

The test system of data set [10] is Plasmodium falciparum. Nature of the data set: Antiplasmodial activity against asexual blood stage of Plasmodium falciparum 3D7 assessed as inhibition of parasite growth incubated for 72 hrs by LDH assay. In kind it is functional, organism-based. Particulars: 3D7, 72 h.
Data set [11] addresses CYP2C19 (Homo sapiens, UniProt P33261). The experiment in a line: Inhibition of CYP2C19 (unknown origin) at 1 uM relative to control. In kind it is ADME.
Data set [12] can be described thus: Cytotoxicity against human HepG2 cells assessed as inhibition of cell growth incubated for 48 hrs by CellTiter-Glo luminescence assay. It counts as toxicity, cell-based.
For data set [13], the system named is Plasmodium falciparum. Nature of the data set: Resistance ratio of EC90 for antiplasmodial activity against drug-resistant recrudescent Plasmodium falciparum Dd2-B2 in 2x10^7 bulk culture selection measured on day 15 under initial selection drug pressure concentration of 3XEC50 to EC90 for antiplasmodial activity against Plasmodium flaciparum Dd2 measured after 72 hrs. It counts as functional.

In data set [14] the target is CYP2D6 (Homo sapiens, UniProt P10635). The experiment in a line: Inhibition of CYP2D6 (unknown origin) at 10 uM relative to control. It counts as ADME.
Data set [15] deals with Plasmodium falciparum. Nature of the data set: Antiplasmodial activity against multidrug-resistant Plasmodium falciparum K1 infected in erythrocytes assessed as inhibition of parasite growth incubated for 72 hrs by [3H]hypoxanthine incorporation based microbeta counting analysis. In kind it is functional, organism-based. Particulars: K1, Erythrocyte.
Data set [16] deals with T1, CYP1A2 (Homo sapiens, UniProt P05177).
T1 sequence (P05177 whole entry): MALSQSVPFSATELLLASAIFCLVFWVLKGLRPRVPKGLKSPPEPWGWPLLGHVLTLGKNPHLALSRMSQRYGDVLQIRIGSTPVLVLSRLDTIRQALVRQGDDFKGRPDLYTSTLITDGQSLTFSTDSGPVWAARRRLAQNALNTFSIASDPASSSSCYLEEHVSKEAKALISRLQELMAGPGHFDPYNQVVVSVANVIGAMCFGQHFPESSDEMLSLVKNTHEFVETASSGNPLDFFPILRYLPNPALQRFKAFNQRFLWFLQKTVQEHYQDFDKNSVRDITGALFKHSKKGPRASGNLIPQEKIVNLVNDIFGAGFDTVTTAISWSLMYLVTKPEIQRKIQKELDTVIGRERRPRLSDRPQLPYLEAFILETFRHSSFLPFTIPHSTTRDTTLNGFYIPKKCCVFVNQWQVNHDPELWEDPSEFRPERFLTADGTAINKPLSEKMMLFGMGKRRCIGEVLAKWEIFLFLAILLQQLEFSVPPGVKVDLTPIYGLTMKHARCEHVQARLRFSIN
Nature of the data set: Inhibition of CYP1A2 (unknown origin) at 10 uM relative to control. It counts as ADME.

CYP2C19, sequence (P33261 whole entry): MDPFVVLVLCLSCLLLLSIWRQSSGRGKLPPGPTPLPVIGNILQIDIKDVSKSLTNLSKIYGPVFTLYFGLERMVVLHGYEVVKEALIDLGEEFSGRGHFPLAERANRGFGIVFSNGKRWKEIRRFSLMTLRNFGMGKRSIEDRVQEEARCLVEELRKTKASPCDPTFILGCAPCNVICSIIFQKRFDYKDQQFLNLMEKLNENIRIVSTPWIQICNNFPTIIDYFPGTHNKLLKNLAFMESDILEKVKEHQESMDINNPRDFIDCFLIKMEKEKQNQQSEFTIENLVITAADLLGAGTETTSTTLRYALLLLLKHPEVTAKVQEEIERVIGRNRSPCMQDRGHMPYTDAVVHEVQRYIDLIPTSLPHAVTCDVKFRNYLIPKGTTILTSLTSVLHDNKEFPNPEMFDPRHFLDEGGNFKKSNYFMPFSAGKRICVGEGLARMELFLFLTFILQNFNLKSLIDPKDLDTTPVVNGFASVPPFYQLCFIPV
CYP2D6, sequence (P10635 whole entry): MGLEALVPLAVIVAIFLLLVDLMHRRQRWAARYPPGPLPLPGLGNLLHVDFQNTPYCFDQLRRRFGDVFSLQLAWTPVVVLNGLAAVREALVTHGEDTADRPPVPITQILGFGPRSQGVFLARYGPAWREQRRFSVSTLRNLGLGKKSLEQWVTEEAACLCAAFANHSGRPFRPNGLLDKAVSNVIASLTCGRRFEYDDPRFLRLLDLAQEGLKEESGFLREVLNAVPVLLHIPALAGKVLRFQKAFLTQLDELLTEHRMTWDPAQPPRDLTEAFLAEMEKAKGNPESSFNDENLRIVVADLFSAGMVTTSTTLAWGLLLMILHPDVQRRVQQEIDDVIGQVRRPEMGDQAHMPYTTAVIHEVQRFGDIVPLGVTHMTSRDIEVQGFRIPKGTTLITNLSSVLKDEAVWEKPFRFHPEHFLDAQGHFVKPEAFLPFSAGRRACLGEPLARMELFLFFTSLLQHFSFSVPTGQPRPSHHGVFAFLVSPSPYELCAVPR

For `Cc1nn(C(C)(C)C)c2nc(C3CC3)cc(C(=O)N3CCOc4ccncc43)c12`, the Activity in [1] is 28 nM; in data set [6], 1.6 10^6No_unit; in data set [9], 28 nM. Besides, the EC50 in data set [2] stood at 7 nM; in data set [3], 8 nM; in data set [5], 0.8 nM; in data set [7] it was 7 nM; in data set [10] it was 16 nM; in data set [15], 9 nM. Also, in [4], the result was Active. Also, the Ratio EC50 in data set [8] came out at 3. Also, in [11], 1 µM produced 3.6% inhibition. The CC50 at 48 h in data set [12] was found to be 4810 nM. Further, the Ratio in data set [13] turned out to be 5. Also, the figures for the inhibition at 10 µM in data set [14] and in [16] were 86.4% and 55.1%, respectively.
